What all share (assay): NCI anticancer screen, dose series, 48 h
Assay [1] deals with A549.
Assay [2] relates to MCF7.
Assay [3] has as its system MDA-MB-435.
The subject of assay [4] is RPMI-8226.
Assay [5] relates to HCT-15.
In assay [6] the test system is IGROV-1.
Assay [7] relates to OVCAR-8.
For assay [8], the system named is TK-10.
Assay [9] has as its system BT-549.
Assay [10] has as its system NCI-H460.
The subject of assay [11] is U-251.
Assay [12] concerns HOP-92.
Assay [13] has as its system HCC 2998.
Assay [14] relates to MOLT-4.
Assay [15] deals with SK-OV-3.
The test system of assay [16] is OVCAR-5.
In assay [17] the test system is DU-145.
For assay [18], the system named is MDA-N.
In assay [19] the test system is NCI-H522.
Assay [20] has as its system NCI-H23.

SMILES strings stand for the structures.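 These data come from cells grown in 96-well plates and exposed to compound for 48 hours at five concentrations. GI50 marks 50% less growth.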 The source made the active and inactive calls. Rule as the data show it: active = GI50 up to about 1.1 µM and inactive = higher. Numbered stars: 1 amine (or outer) side, 2 acyl side, 3 side chain; on linkers, the order of the positions; unused ones are H or OH. Square brackets hold non-standard residues; d marks the D form. Peptide text beside a SMILES is read from it. X55 = CC[C@H](C)[C@H](OC(=O)[C@@H](C)[C@@H](CC)N[*:1])C(=O)[*:2]; X31 = C[C@H](N[*:1])C(=O)C(C)(C)C(=O)[*:2]; NMeY = CN[C@@H](Cc1ccc(O)cc1)C(=O)O; NMeL = CN[C@@H](CC(C)C)C(=O)O; NMeV = CN[C@H](C(=O)O)C(C)C

On to `O=c1cc(-c2ccc(O)c(O)c2)oc2cc(O[C@H]3O[C@H](CO)[C@@H](O)[C@H](O)[C@H]3O)cc(O)c12`, for which the GI50 in [1] was 79.8 µM (inactive); in assay [2], > 100 µM (inactive); in assay [3] it was > 100 µM (inactive); in [4], 73.5 µM (inactive); in [5] it was 41.5 µM; in [6], > 100 µM (inactive). The GI50 in assay [7] is > 100 µM (inactive); in [8], > 100 µM (inactive); in assay [9], > 100 µM (inactive); in assay [10] it was 34.8 µM (inactive); in [11], > 100 µM (inactive); in assay [12], > 100 µM (inactive). For the same compound, the GI50 in assay [13] was > 100 µM (inactive); in [14], 21.4 µM (inactive); in assay [15] it was > 100 µM (inactive); in assay [16] it was > 100 µM (inactive); in assay [17] it was > 100 µM (inactive); in [18] it was > 100 µM (inactive). Further, the GI50 in [19] was 41.3 µM (inactive); in assay [20], > 100 µM (inactive).

On to `CC[C@H](C)[C@@H]1OC(=O)[C@@H](C)[C@@H](CC)NC(=O)[C@H](C)NC(=O)C(C)(C)C(=O)[C@H](C)NC(=O)[C@H](Cc2ccc(OC)cc2)N(C)C(=O)[C@H](C(C)C)N(C)C(=O)CNC(=O)[C@H](CC(C)C)N(C)C(=O)CNC1=O` [DOLASTATIN 11] (cyclo(A[X55]G[NMeL]G[NMeV][NMeY](Me)[X31])), for which the GI50 is 0.0175 µM (active) in assay [1]; 0.0592 µM (active) in assay [2]; 0.0603 µM (active) in [3]; 0.115 µM (active) in assay [4]; 0.67 µM in [5]; 0.0355 µM (active) in assay [6]. Also, the GI50 is 0.101 µM (active) in assay [7]; 0.0713 µM (active) in assay [8]; 0.091 µM (active) in assay [9]; 0.00115 µM (active) in [10]; 0.0158 µM (active) in assay [11]; 0.0752 µM (active) in assay [12]. For the same compound, the GI50 in assay [13] was 0.0188 µM (active); in assay [14], 0.543 µM (active); in assay [15] it was 0.229 µM (active); in [16], 0.9 µM (active); in [17], 0.118 µM (active); in [18], 0.0855 µM (active). Also, the GI50 in assay [19] is 0.00607 µM (active); in [20], 0.071 µM (active).

These data come from ChEMBL document CHEMBL1201862, “PubChem BioAssay data set” (2004).
